Source: the supplement of paper PMC11061612

Assays:
Assay in all cases: Bliss excess, mean over the matrix (fraction); higher = more synergy
[1] = tested on: KLE (Endometrial Carcinoma)
In short: (§1)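 After 24 hours at 37°C and 5% CO2 in 1536-well plates, cells in DMEM/F12 or RPMI plus 10% FBS received two-drug dose matrices for 72 hours. Viability came from CellTiter-Glo 2.0 luminescence and was scaled as inhibition, anchored at 0 by vehicle wells and at 1 by blank wells. Combination Emax is taken as the second-highest inhibition in the matrix, and Bliss excess as the observed combination effect less EA + EB − EA·EB, with EA and EB the single-agent effects.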

[2] = tested on: IMR-5 (Neuroblastoma)
In short: as §1

[3] = tested on: PF-382 (T-Lymphoblastic Leukemia)
In short: as §1

[4] = tested on: NCI-H513 (Other Solid Carcinomas)
In short: as §1

[5] = tested on: OCUB-M (Breast Carcinoma)
In short: as §1

[6] = tested on: GI-1 (Glioblastoma)
In short: as §1

[7] = tested on: VMRC-LCD (Lung Adenocarcinoma)
In short: as §1

[8] = tested on: NB7 (Neuroblastoma)
In short: as §1

[9] = tested on: HuP-T3 (Pancreatic Carcinoma)
In short: as §1

[10] = tested on: NCI-N87 (Gastric Carcinoma)
In short: as §1

[11] = tested on: KINGS-1 (Low Grade Glioma)
In short: as §1

[12] = tested on: KYSE-150 (Esophageal Squamous Cell Carcinoma)
In short: as §1

[13] = tested on: BT-20 (Breast Carcinoma)
In short: as §1

[14] = tested on: EW-3 (Ewing's Sarcoma)
In short: as §1

[15] = tested on: NCI-H2405 (Lung Adenocarcinoma)
In short: as §1

[16] = tested on: JHH-7 (Hepatocellular Carcinoma)
In short: as §1

[17] = tested on: DG-75 (Burkitt's Lymphoma)
In short: as §1

[18] = tested on: EW-18 (Ewing's Sarcoma)
In short: as §1

[19] = tested on: EMC-BAC-2 (Non-Small Cell Lung Carcinoma)
In short: as §1

[20] = tested on: RPMI-7951 (Melanoma)
In short: as §1

SMILES: CCc1c2c(nc3ccc(O)cc13)-c1cc3c(c(=O)n1C2)COC(=O)[C@]3(O)CC [SN-38] + O=C(c1cc(Cc2n[nH]c(=O)c3ccccc23)ccc1F)N1CCN(C(=O)C2CC2)CC1 [Olaparib] (first compound max 0.3 µM, 7x7, partner max 10 µM)
- Bliss excess [1]: 0.0346
- Bliss excess [2]: 0.0721
- Bliss excess [3]: 0.0471
- Bliss excess [4]: 0.0188
- Bliss excess [5]: 0.15
- Bliss excess [6]: 0.0652
- Bliss excess [7]: -0.0163
- Bliss excess [8]: 0.0625
- Bliss excess [9]: -0.0406
- Bliss excess [10]: 0.0599
- Bliss excess [11]: 0.0161
- Bliss excess [12]: 0.0762
- Bliss excess [13]: 0.107
- Bliss excess [14]: -0.0057
- Bliss excess [15]: 0.0105
- Bliss excess [16]: 0.0299
- Bliss excess [17]: 0.0451
- Bliss excess [18]: 0.034
- Bliss excess [19]: 0.0721
- Bliss excess [20]: 0.0656
